Values joined by “and” are separate entries in the source; they are usually repeats but may differ in a detail not shown here. Identical values can stand only once.
Columns and labels:
Parameters in all cases: scale not given: the % may be the effect or the level left
[1] = biological target: RAC-beta serine/threonine-protein kinase (Homo sapiens) (UniProt P31751); assay: Inhibition of human AKT2 assessed as percent of control at 2000 nM by KINOMEscan assay relative to control
[2] = biological target: Aurora kinase C (Homo sapiens) (UniProt Q9UQB9); assay: Inhibition of human AURKC assessed as percent of control at 2000 nM by KINOMEscan assay relative to control
[3] = biological target: Protein-tyrosine kinase 6 (Homo sapiens) (UniProt Q13882); assay: Inhibition of human BRK assessed as percent of control at 2000 nM by KINOMEscan assay relative to control
Sequence of Protein-tyrosine kinase 6 (Homo sapiens) (Q13882 whole entry, looked up): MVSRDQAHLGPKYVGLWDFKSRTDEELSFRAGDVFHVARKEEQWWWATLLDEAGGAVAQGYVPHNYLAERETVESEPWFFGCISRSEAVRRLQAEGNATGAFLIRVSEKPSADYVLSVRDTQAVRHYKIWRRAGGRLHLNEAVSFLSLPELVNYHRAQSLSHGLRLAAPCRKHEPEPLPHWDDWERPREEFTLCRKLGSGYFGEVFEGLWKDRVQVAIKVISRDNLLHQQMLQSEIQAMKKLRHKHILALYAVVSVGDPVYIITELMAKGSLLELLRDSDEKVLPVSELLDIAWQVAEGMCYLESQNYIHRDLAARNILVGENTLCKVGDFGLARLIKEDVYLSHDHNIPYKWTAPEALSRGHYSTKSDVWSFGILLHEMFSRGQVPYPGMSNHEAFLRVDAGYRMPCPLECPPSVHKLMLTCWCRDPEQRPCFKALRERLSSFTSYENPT

[4] = biological target: Serine/threonine-protein kinase BRSK2 (Homo sapiens) (UniProt Q8IWQ3); assay: Inhibition of human BRSK2 assessed as percent of control at 2000 nM by KINOMEscan assay relative to control
[5] = biological target: Cyclin-dependent kinase 13 (Homo sapiens) (UniProt Q14004); assay: Inhibition of human CDC2L5 assessed as percent of control at 2000 nM by KINOMEscan assay relative to control
[6] = biological target: Casein kinase I isoform epsilon (Homo sapiens) (UniProt P49674); assay: Inhibition of human CSNK1E assessed as percent of control at 2000 nM by KINOMEscan assay relative to control; details: INHIBITOR
[7] = biological target: Dual specificity tyrosine-phosphorylation-regulated kinase 2 (Homo sapiens) (UniProt Q92630); assay: Inhibition of human DYRK2 assessed as percent of control at 2000 nM by KINOMEscan assay relative to control
[8] = biological target: Fibroblast growth factor receptor 3 (Homo sapiens) (UniProt P22607); assay: Inhibition of human FGFR3 assessed as percent of control at 2000 nM by KINOMEscan assay relative to control
Sequence of Fibroblast growth factor receptor 3 (Homo sapiens) (P22607 23-806 limits assumed): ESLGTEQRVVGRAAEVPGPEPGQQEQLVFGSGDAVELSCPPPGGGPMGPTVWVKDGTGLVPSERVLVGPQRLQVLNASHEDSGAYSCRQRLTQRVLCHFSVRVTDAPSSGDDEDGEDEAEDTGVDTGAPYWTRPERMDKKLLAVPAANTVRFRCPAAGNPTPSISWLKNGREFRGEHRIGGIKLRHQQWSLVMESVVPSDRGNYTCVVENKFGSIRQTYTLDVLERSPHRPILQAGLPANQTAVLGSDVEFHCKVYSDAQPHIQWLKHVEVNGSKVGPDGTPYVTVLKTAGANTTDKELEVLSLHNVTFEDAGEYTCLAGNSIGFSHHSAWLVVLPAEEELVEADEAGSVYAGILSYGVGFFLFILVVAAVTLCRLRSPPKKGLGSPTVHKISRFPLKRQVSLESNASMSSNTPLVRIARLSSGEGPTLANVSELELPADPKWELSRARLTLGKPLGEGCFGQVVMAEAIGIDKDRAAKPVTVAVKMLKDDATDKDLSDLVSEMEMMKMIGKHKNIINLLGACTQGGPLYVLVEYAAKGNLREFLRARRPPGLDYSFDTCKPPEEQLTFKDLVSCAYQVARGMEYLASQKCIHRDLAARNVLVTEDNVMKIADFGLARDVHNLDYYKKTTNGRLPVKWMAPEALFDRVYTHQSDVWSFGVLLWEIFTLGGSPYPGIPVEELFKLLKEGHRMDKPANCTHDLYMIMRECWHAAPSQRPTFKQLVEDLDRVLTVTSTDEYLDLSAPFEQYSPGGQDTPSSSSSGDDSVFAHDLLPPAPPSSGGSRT

[9] = system: Receptor-type tyrosine-protein kinase FLT3 (Homo sapiens), P36888 [D835V]; assay: Inhibition of human FLT3 D835V mutant assessed as percent of control at 2000 nM by KINOMEscan assay relative to control; details: INHIBITOR
[10] = biological target: Receptor-type tyrosine-protein kinase FLT3 (Homo sapiens) (UniProt P36888); assay: Inhibition of human autoinhibited FLT3 assessed as percent of control at 2000 nM by KINOMEscan assay relative to control
[11] = biological target: Insulin-like growth factor 1 receptor (Homo sapiens) (UniProt P08069); assay: Inhibition of human IGF1R assessed as percent of control at 2000 nM by KINOMEscan assay relative to control
[12] = biological target: Interleukin-1 receptor-associated kinase 4 (Homo sapiens) (UniProt Q9NWZ3); assay: Inhibition of human IRAK4 assessed as percent of control at 2000 nM by KINOMEscan assay relative to control
Sequence of Interleukin-1 receptor-associated kinase 4 (Homo sapiens) (Q9NWZ3 whole entry, the tested form may be a part): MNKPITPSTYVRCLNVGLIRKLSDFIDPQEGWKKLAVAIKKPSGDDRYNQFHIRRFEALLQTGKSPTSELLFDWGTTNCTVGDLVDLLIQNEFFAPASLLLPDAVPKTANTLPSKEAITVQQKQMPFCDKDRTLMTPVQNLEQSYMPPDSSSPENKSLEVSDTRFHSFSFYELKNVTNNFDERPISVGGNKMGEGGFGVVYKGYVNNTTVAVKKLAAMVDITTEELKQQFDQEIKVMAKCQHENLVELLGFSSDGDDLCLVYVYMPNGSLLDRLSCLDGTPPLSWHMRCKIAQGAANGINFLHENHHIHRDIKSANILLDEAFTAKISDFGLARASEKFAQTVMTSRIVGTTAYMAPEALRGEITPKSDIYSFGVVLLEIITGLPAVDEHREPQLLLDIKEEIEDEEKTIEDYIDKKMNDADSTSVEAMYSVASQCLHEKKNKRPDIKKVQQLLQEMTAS

[13] = biological target: LIM domain kinase 1 (Homo sapiens) (UniProt P53667); assay: Inhibition of human LIMK1 assessed as percent of control at 2000 nM by KINOMEscan assay relative to control
Sequence of LIM domain kinase 1 (Homo sapiens) (P53667 whole entry, looked up, the tested form may be a part): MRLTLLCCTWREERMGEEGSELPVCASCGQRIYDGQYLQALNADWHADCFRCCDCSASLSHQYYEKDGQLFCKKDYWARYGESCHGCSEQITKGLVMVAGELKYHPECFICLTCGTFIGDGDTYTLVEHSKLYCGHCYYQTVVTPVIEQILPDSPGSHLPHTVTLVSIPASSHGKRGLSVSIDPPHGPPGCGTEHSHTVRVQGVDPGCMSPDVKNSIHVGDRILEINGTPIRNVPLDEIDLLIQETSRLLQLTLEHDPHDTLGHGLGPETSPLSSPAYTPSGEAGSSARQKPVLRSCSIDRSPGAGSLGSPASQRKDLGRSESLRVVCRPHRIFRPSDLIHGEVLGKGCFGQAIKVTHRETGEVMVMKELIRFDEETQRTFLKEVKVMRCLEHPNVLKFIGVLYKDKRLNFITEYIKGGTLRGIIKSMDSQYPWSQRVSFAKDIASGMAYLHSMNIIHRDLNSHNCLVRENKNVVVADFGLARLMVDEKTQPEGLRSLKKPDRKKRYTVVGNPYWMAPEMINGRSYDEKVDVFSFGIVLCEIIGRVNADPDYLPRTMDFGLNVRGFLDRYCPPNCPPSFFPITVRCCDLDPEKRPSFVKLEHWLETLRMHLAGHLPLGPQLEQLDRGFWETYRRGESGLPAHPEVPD

[14] = system: Hepatocyte growth factor receptor (Homo sapiens), P08581 [M1250T]; assay: Inhibition of human MET M1250T mutant assessed as percent of control at 2000 nM by KINOMEscan assay relative to control
[15] = biological target: Misshapen-like kinase 1 (Homo sapiens) (UniProt Q8N4C8); assay: Inhibition of human MINK assessed as percent of control at 2000 nM by KINOMEscan assay relative to control
[16] = biological target: Myosin-IIIb (Homo sapiens) (UniProt Q8WXR4); assay: Inhibition of human MYO3B assessed as percent of control at 2000 nM by KINOMEscan assay relative to control
[17] = biological target: Serine/threonine-protein kinase Nek4 (Homo sapiens) (UniProt P51957); assay: Inhibition of human NEK4 assessed as percent of control at 2000 nM by KINOMEscan assay relative to control
[18] = biological target: Serine/threonine-protein kinase NLK (Homo sapiens) (UniProt Q9UBE8); assay: Inhibition of human NLK assessed as percent of control at 2000 nM by KINOMEscan assay relative to control
Sequence of Serine/threonine-protein kinase NLK (Homo sapiens) (Q9UBE8 whole entry): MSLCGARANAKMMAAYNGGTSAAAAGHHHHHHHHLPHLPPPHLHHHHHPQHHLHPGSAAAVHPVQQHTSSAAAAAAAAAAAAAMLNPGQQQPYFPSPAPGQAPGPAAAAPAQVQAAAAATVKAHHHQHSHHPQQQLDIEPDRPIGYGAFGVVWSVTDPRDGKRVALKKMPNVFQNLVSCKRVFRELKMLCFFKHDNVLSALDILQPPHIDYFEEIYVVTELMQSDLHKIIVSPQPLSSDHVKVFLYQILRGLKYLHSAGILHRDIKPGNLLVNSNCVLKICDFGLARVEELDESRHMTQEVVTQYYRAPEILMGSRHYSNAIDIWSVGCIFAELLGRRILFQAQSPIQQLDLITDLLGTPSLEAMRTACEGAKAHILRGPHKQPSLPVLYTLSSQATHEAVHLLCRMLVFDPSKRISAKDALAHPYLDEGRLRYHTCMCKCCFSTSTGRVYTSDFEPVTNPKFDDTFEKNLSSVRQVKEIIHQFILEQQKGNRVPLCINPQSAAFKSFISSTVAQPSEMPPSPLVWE

[19] = biological target: Mitogen-activated protein kinase 12 (Homo sapiens) (UniProt P53778); assay: Inhibition of human p38-gamma assessed as percent of control at 2000 nM by KINOMEscan assay relative to control
Sequence of Mitogen-activated protein kinase 12 (Homo sapiens) (P53778 whole entry, canonical isoform): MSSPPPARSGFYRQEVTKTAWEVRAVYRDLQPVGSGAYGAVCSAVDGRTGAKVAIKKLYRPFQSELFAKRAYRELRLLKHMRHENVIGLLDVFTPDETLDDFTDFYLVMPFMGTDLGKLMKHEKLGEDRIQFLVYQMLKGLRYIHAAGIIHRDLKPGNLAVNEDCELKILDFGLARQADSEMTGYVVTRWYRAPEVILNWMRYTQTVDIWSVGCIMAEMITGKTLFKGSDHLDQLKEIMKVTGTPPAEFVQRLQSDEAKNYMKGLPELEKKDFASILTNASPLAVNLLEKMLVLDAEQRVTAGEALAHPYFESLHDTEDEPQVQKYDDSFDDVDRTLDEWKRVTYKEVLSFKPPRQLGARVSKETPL

[20] = biological target: Phosphorylase b kinase gamma catalytic chain, skeletal muscle/heart isoform (Homo sapiens) (UniProt Q16816); assay: Inhibition of human PHKG1 assessed as percent of control at 2000 nM by KINOMEscan assay relative to control
[21] = system: Phosphatidylinositol 4,5-bisphosphate 3-kinase catalytic subunit alpha isoform (Homo sapiens), P42336 [I800L]; assay: Inhibition of human PIK3CA I800L mutant assessed as percent of control at 2000 nM by KINOMEscan assay relative to control
[22] = biological target: Serine/threonine-protein kinase pim-1 (Homo sapiens) (UniProt P11309); assay: Inhibition of human PIM1 assessed as percent of control at 2000 nM by KINOMEscan assay relative to control
[23] = biological target: Protein kinase C delta type (Homo sapiens) (UniProt Q05655); assay: Inhibition of human PRKCD assessed as percent of control at 2000 nM by KINOMEscan assay relative to control
[24] = biological target: Protein kinase C epsilon type (Homo sapiens) (UniProt Q02156); assay: Inhibition of human PRKCE assessed as percent of control at 2000 nM by KINOMEscan assay relative to control
[25] = biological target: Interferon-induced, double-stranded RNA-activated protein kinase (Homo sapiens) (UniProt P19525); assay: Inhibition of human PRKR assessed as percent of control at 2000 nM by KINOMEscan assay relative to control
Sequence of Interferon-induced, double-stranded RNA-activated protein kinase (Homo sapiens) (P19525 whole entry): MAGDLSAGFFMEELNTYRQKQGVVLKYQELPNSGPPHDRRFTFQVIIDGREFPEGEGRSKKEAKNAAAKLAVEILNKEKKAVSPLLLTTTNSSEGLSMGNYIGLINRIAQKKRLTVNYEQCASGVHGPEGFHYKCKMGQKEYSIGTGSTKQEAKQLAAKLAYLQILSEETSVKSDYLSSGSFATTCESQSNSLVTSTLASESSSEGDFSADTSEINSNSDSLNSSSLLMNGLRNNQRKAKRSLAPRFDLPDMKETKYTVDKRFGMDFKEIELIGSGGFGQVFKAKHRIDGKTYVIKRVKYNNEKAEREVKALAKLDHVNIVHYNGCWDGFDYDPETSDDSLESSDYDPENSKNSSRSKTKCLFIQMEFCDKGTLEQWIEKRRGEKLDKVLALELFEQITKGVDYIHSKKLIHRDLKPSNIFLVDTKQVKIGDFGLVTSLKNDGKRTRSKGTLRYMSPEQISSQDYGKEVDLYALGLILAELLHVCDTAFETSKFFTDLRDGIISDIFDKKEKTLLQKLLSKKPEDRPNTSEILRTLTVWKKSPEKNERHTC

[26] = biological target: Receptor-interacting serine/threonine-protein kinase 2 (Homo sapiens) (UniProt O43353); assay: Inhibition of human RIPK2 assessed as percent of control at 2000 nM by KINOMEscan assay relative to control
Sequence of Receptor-interacting serine/threonine-protein kinase 2 (Homo sapiens) (O43353 whole entry): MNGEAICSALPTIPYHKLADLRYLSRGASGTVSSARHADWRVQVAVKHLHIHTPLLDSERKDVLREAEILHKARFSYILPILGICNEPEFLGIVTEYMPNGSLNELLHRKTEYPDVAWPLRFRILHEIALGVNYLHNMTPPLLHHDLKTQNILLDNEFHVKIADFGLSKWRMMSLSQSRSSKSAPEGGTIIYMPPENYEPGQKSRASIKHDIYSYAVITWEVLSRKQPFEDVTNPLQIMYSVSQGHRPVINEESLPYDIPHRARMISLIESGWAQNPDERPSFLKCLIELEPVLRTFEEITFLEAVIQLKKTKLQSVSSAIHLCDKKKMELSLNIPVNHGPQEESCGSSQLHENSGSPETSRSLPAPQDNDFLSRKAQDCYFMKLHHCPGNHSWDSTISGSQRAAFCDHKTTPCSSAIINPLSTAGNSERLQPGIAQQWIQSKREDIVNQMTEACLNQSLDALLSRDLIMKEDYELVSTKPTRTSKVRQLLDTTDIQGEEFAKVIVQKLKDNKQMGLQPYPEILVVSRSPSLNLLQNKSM

[27] = biological target: Receptor-interacting serine/threonine-protein kinase 4 (Homo sapiens) (UniProt P57078); assay: Inhibition of human RIPK4 assessed as percent of control at 2000 nM by KINOMEscan assay relative to control
[28] = biological target: Proto-oncogene tyrosine-protein kinase Src (Homo sapiens) (UniProt P12931); assay: Inhibition of human SRC assessed as percent of control at 2000 nM by KINOMEscan assay relative to control
[29] = biological target: Serine/threonine-protein kinase 33 (Homo sapiens) (UniProt Q9BYT3); assay: Inhibition of human STK33 assessed as percent of control at 2000 nM by KINOMEscan assay relative to control
[30] = biological target: STE20/SPS1-related proline-alanine-rich protein kinase (Homo sapiens) (UniProt Q9UEW8); assay: Inhibition of human STK39 assessed as percent of control at 2000 nM by KINOMEscan assay relative to control
[31] = biological target: Serine/threonine-protein kinase TAO3 (Homo sapiens) (UniProt Q9H2K8); assay: Inhibition of human TAOK3 assessed as percent of control at 2000 nM by KINOMEscan assay relative to control

Sequence of RAC-beta serine/threonine-protein kinase (Homo sapiens) (P31751 whole entry): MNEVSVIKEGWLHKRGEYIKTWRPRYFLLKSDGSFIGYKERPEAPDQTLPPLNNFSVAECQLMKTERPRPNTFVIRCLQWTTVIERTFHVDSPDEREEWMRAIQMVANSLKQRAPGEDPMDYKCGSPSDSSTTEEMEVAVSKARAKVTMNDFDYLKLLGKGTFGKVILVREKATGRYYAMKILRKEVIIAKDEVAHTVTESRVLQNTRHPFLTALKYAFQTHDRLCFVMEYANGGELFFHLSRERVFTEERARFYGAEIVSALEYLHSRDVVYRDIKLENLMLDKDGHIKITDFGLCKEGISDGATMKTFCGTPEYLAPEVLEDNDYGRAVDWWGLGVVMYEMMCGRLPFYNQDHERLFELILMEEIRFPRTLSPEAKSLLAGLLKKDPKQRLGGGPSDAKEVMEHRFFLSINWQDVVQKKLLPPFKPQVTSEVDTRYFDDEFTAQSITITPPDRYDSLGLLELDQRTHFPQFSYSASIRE

In the case of CN(C)C(=O)c1ccc(N2CCCN(c3ccnc4sc(C(N)=O)c(N)c34)CC2)cc1, the Activity [1] is reported as 86% and 99%, the Activity [2] is reported as 100% and the Activity [3] is reported as 100% and 99%. The Activity [4] was 100%, the Activity [5] was 71% and 80% and the Activity [6] was 25% and 12%. The Activity [7] was 100% and 97%, the Activity [8] was 98% and 99% and the Activity [9] was 33% and 14%. For the same compound, the Activity [10] was 72% and 77%, the Activity [11] was 92% and 91% and the Activity [12] was 89% and 78%. For the same compound, the Activity [13] was 100%, the Activity [14] was 100% and 96% and the Activity [15] was 100% and 87%. For the same compound, the Activity [16] was 87% and 100%, the Activity [17] was 100% and 95% and the Activity [18] was 98%. For the same compound, the Activity [19] was 98% and 100%, the Activity [20] was 94% and 97% and the Activity [21] was 97% and 74%. The Activity [22] was 88% and 100%, the Activity [23] was 100% and 92% and the Activity [24] was 93% and 97%. The Activity [25] was 100%, the Activity [26] was 100% and 93% and the Activity [27] was 89% and 68%. The Activity [28] was 100% and 96%, the Activity [29] was 100% and the Activity [30] was 93% and 94%. The Activity [31] was 98% and 73%.

Source: ChEMBL document CHEMBL4804286, “3-amino-4-(4-(4 (dimethylcarbamoyl) phenyl)-1,4-diazepan-1-yl) thieno [2,3-b] pyridine-2-carboxamide for use in cancer therapy and formulations comprising the same” (2020)
